Data from US20090105149A1, “Compounds comprising lpa” (ENKAM PHARMACEUTICALS A/S, priority 2003, published 2009).

Assays:
[1] = test system: FGL-induced survival of CGN; test: Effect of inhibitors of FGFR, MEK and PI3K on FGL-induced survival of CGN; assay type: cell-based, rat; conditions: 10 μg/ml FGLd, low KCl
Method: Thereafter the MEK inhibitor PD98059 ([…]), PI3K inhibitor LY294002 (▴) and FGFR inhibitor SU5402 (▪) were added at various concentrations. The addition of the inhibitors followed in all cases by the addition of 10 μg/ml FGLd. […] Results from at least four individual experiments are shown as percentage of the number of live neurons relative to the total number of neurons ±SEM, with control cultures treated with FGLd set at 100%.

[2] = test system: FGL-induced neurite outgrowth in CGN cultures; test: Effect of inhibitors of FGFR, MEK and PI3K on FGL-induced neurite outgrowth in CGN; assay type: cell-based, rat; conditions: for FGLd-induced neurite outgrowth in CGN in presence of inhibitor: FGLd-treated control = 100%
Method: CGN cultures were grown for 24 hours at a density of 10,000 cells/cm^2 on 8-well permanox slides in the presence of the FGL peptide and an inhibitor. PD98059 ([…]) was added at concentrations of 12.5, 25 and 50 μM simultaneously with 10 μg/ml FGLd; LY294002 (▴) was added at concentrations of 3.5, 7 and 10 μM simultaneously with 27 μg/ml FGLd. SU5402 (▪) was added in concentrations of 20, 40 and 80 μM simultaneously with 27 μg/ml FGLd. After the treatment cells were fixed and immunostained for GAP-43. Results from at least four independent experiments are shown as percentage ±SEM, with FGLd-treated control cultures set at 100%. The dashed line indicates the average neurite length in cultures without FGLd-treatment. *p<0.05, **p<0.01 when compared to the FGLd-treated controls.
(§1) Peptide solutions without or with inhibitors of various signal transduction pathways were added to a total volume of 300 μl/cm^2, and the slides were incubated at 37° C. After 24 hours, the neurons were fixed with 4% (v/v) formaldehyde for 20 minutes and thereafter immunostained using primary rabbit antibodies against GAP-43 and Alexa Fluor secondary goat anti-rabbit antibodies. Images of at least 200 neurons for each group in each individual experiment were obtained systematically by using computer assisted fluorescence microscopy as previously described (Rønn et al., 2000 op. cit.). Briefly, a Nikon Diaphot inverted microscope with a Nikon Plan 20× objective (Nikon, Tokyo, Japan) coupled to a video camera (Grundig Electronics, Germany) was used for recordings. The same software package as described above for the dopaminergic neurite outgrowth assay was used to process the recorded images.

[3] = test system: FGL-induced neurite outgrowth in CGN cultures; conditions: previously found; cited from earlier work
[4] = test system: organotypic hippocampal neuronal slice cultures (OHSC); test: OGD, propidium iodide staining of OHSC; assay type: cell-based, rat; conditions: inhibitor together with FGLd
Source text: (§2) In the present study it was investigated the effect of the FGL peptide on synaptic plasticity, neuronal function and vulnerability following oxygen and glucose deprivation (OGD) in organotypic hippocampal neuronal slice cultures (OHSC) from 7-day-old Wistar rats according to method of Stoppini et al. (1991) Neurosci Methods. 37:173-82 and primary cultures of dissociated hippocampal neurons from 1-day-old rats according to method of Maar et al. (1997) J Neurosci Res. 47:163-72. Primary cell cultures were maintained for 11-12 days and OHSC for 12-14 days prior to adding FGLd.
(§3) The primary cell cultures and OHSC were exposed to OGD for 10 and 20 minutes. Following OGD, the cultures were again supplied with oxygen and glucose and analysed at 1, 4 or 24 hour time point after introduction of OGD exposure. FGLd (or the control peptide FGLc) was added 24 hr before, immediately, or 1 hr or 24 hr after OGD. When administered prior to OGD, FGLd was removed from the medium when introducing OGD. In some cases, the slice cultures were treated with FGLd only at 4 hr after OGD. In addition, the FGFR inhibitor, SU5402 (25 μM), was added together with FGLd in some of the set-ups.
(§4) In hippocampal neuronal cultures, FM 1-43 staining was used to evaluate pre-synaptic function (described above). Cell viability in both primary cell cultures and OHSC was measured using the […] [3-(4,5-dimethylthiazol-2-yl)-2,5-diphenyltetrazolium bromide] assay according to Malich et al, (1997) Toxicology. 124:179-92. In, addition, cell viability in OHSC was measured using propidium iodide (PI) staining according to Laake et al. (1999) Brain Res Brain Res Protoc. 4:173-84.

[5] = test system: dissociated hippocampal neurons; test: OGD, metabolic activity (MTS) in dissociated hippocampal cell cultures; assay type: cell-based, rat; conditions: inhibitor 25 μM together with FGLd for 24 hours before OGD
Source text: as §2, §3, §4

hippocampal neurons [6] = test: FM 1-43 destaining (presynaptic vesicle turnover) in hippocampal neurons; assay type: cell-based, rat; conditions: added simultaneously with FGLd
Method: The values were compared using an unpaired t-test. *p=0.04 (1 h) and **p=0.0032 (48 h). FGLcontrol is a control peptide consisting the sequence […] (SEQ ID NO: 147).
The effects of FGLd on vesicle turnover was estimated in primary cultures of hippocampal neurons from embryonic rats (E19). The cultures were prepared as above. Following 13-16 days in vitro, FGLd was added to the cultures and incubated for 1, 24 or 48 hours. After 48 hours of incubation, the FGFR-inhibitor (SU 5402) was added simultaneously with FGLd to some of the cultures.
After treatment with FGLd the neurons were labeled with the fluorescent membrane probe FM 1-43 as described by Kiryushko et al (2003) J Biol. Chem. 278:12325-34. The rate of FM 1-43 release (destaining of cells) evoked by depolarisation with 90 mM potassium was then evaluated by a time-lapse image acquisition using the Radiance 2000 scanning system and a Nikon eclipse TE200 confocal microscopy.

[7] = test system: dissociated hippocampal neurons; test: OGD, FM 1-43 release in dissociated hippocampal cell cultures; assay type: cell-based, rat; conditions: together with FGLd
Source text: as §2, §3, §4

hippocampal neurons [8] = test: Neurite outgrowth, hippocampal neurons; assay type: cell-based, rat
Method: The cultures were subsequently immunostained for tyrosine hydroxylase. Hippocampal neurons and CGN were plated at a density of 10,000 cells/cm^2 on 8-well permanox chamber slides and incubated for 24 hours in the presence of various concentrations of FGLd. Subsequently the neurons were immunostained for GAP-43. Results from at least five independent experiments for each neuronal culture are shown as percentage ±SEM with the untreated controls set at 100%. *p<0.05, **p<0.01, ***p<0.001 when compared to the controls.
Results from at least four independent experiments are shown as percentage SEM with untreated controls set at 100%. **p<0.01 when compared to the controls.
as §1

[9] = test system: cerebellar granule neurons (CGN); test: Survival of CGN induced to undergo apoptosis by low KCl; conditions: individual monomer; low KCl
Method: Cerebella granular meurons (CGN) (e and f) from postnatal day 7 rats were grown at a density of 100,000 cells/cm^2 for 7 days on poly-L-lysine coated microtiter plates in the medium containing 40 mM KCl, then the medium was substituted to a 5 mM KCl containing medium supplemented with various concentrations of FGLd.
For the experiments cerebellar tissue was dissected in modified Krebs-Ringer solution kept on ice, and treated as described for the hippocampal neurons above. All cell cultures were incubated at 37° C. in a humidified atmosphere containing 5% CO2.
Primary cultures of CGN were plated at a density of 100,000 cells/cm^2 on poly-L-lysine coated 8-well permanox slides in Neurobasal-A medium (Gibco, BRL) supplemented with 2% (v/v) B27, 0.5% (v/v) glutamax, 100 U/ml penicillin, 100 μg/ml streptomycin and KCl, making the final concentration of KCl in the medium 40 mM. 24 hours after plating, cytosine-β-D-arabinofuranoside (Ara-C; Sigma-Aldrich) was added to a final concentration of 10 μM to avoid proliferation of glial cells, after which the neurons were allowed to differentiate for further six days at 37° C. Apoptotic cell death was induced by washing twice and changing the medium to Basal Medium Eagle (BME; Gibco BRL) supplemented with 1% (v/v) glutamine, 100 U/ml penicillin and 100 μg/ml streptomycin, 3.5 g D-glucose/l and 1% (v/v) sodium pyruvate (Gibco BRL) together with various concentrations of peptide. Thereby the concentration of potassium in the cultures was reduced to 5 mM KCl. Two days after induction of apoptosis, the cells were fixed with 4% formaldehyde and stained with Hoechst 33258 as described for the survival assay employing hippocampal neurons.

rat FGFR1 (IIIC isoform) = target: T1, rat FGFR1 (IIIC isoform) (Rattus norvegicus, UniProt Q04589); test: Phosphorylation of FGFR1 in transfected HEK293 cells; assay type: cell-based; conditions: 20 μg/ml; 20 min; HEK293 cells transfected with rat FGFR1
T1 construct: expressed in transfected cells; host or cells: HEK293 cells, transiently transfected with a pcDNA3.1(+) plasmid (Invitrogen)
Method: The EFL peptide is derived from the Fn 3, 2 module of NCAM and represents the E strand-loop-G strand part of the module. For the experiments the peptide was synthesised as described above. […] The peptide is also capable to bind and stimulate FGFR1 in cells expressing the receptor, wherein the peptide induces the receptor phosphorylation (at concentration 20 μg/ml by more then 300%). Phosphorylation of FGFR1 was studied using the following assay. […] Cells were grown for another 24 hrs in full medium, and then shifted to starvation media (DMEM 1965) overnight. FGFR transfected cells were stimulated for 20 min with the EFL monomer, lysed in 8M urea, 1 mM orthovanadate (in PBS) and purified from the lysate via the His-tag as follows: The lysate was loaded on Ni^2+/NTA-sepharose (Qiagen), washed with lysis buffer plus 10 mM imidazole, and the FGFR was eluted with lysis buffer plus 250 mM imidazole. The purified FGFR was analysed by immunoblotting using anti-pentahis (Qiagen) or anti-phosphotyrosine (PY20, Transduction Laboratories) antibodies. The bands were visualised by chemilumiscense and the band density was measured using a GeneGnome apparatus (SynGene).

T1 sequence (Q04589 22-822): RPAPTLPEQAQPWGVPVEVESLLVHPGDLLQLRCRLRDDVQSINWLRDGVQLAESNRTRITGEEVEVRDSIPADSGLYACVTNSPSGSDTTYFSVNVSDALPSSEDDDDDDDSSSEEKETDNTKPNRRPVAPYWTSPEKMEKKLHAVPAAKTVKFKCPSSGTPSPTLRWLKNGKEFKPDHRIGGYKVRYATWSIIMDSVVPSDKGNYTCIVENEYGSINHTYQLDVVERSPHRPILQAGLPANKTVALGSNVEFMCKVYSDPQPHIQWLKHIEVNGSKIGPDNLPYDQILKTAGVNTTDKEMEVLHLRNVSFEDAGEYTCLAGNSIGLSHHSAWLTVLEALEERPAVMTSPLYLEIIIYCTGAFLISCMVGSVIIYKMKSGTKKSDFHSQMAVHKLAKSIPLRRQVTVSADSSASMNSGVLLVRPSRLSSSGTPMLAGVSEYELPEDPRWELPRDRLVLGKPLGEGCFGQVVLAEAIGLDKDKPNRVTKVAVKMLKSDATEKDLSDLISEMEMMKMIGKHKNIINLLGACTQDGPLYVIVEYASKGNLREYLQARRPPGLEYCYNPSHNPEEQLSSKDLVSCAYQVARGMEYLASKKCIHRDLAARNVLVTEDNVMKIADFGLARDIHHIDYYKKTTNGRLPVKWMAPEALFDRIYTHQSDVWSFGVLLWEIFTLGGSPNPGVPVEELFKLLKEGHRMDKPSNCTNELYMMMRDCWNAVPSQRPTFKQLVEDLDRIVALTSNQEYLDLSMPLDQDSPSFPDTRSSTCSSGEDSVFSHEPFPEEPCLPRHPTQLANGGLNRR

Question: What does the source list for `COc1cccc(-c2cc(=O)c3ccccc3o2)c1N` [PD98059]?
Answer: inhibition of FGLd-induced survival of CGN ([1]; 12.5 μM inhibitor): inhibited cell survival induced by FGLd to the level of the control cultures; FGLd-induced neurite outgrowth in CGN in presence of inhibitor ([2]; inhibitor above 25 μM, 10 μg/ml FGLd): 75%; effect on basal neurite outgrowth in CGN [3]: not to affect the basal neurite outgrowth

Question: With `Cc1c[nH]c(/C=C2\C(=O)Nc3ccccc32)c1CCC(=O)O` [SU5402] as the molecule, how does the “PI staining after OGD, pre-incubation with FGFR-inhibitor together with FGLd” value [4] read?
Answer: Its value is “the PI staining was similar to that of OGD alone”.

Question: And the “metabolic activity after OGD, FGLd pretreatment with FGFR-inhibitor present” value [5]?
Answer: Its value is “did not diminish the OGD-induced reduction in metabolic activity”.

Question: And the “effect of FGFR inhibitor on FGLd-increased FM 1-43 destaining” value (hippocampal neurons [6])?
Answer: Its value is “abolished the effect of FGLd”.

Question: What about the “inhibition of FGLd-induced survival of CGN” value ([1]; 20 μM inhibitor) of the same molecule?
Answer: The value was “significantly inhibited the survival response to FGLd”.

Question: What about the “inhibition of FGLd-induced survival of CGN” value ([1]; 40 μM inhibitor) of the same molecule?
Answer: Its value is “reduced the FGLd-induced survival to the survival rate of the untreated apoptosis-induced control neurons”.

Question: What about the “FGLd-induced neurite outgrowth in CGN in presence of inhibitor” value ([2]; 80 μM inhibitor, 27 μg/ml FGLd) of the same molecule?
Answer: The value was 35%.

Question: And the “effect on neurite outgrowth in control CGN cultures not treated with FGLd” value ([2]; data not shown)?
Answer: The value was “without significant effect on neurite outgrowth”.

Question: What about the “effect of FGFR-inhibitor on FGLd action on OGD-induced decrease in FM 1-43 release” value [7] of the same molecule?
Answer: The value was “abrogated the effect of FGLd”.

Question: What about the “block of EFL-stimulated neuritogenic activity by inhibitor of FGFR1” value (hippocampal neurons [8]; with EFL peptide) of the same molecule?
Answer: The value was “specifically blocked”.

Question: Which results are given for “NIEVWVEAENALGKKV (Interleukin-6 receptor beta chain [Swiss-Prot: Q00560]: FGFR binding motif) [EFL peptide, individual monomer peptide derived from the Fn 3, 2 module of NCAM]”?
Answer: survival of rat cerebellar neurons [9]: stimulate survival; FGFR1 phosphorylation induced by the peptide (rat FGFR1 (IIIC isoform)): > 300%; neurite outgrowth of rat hippocampal neurons (hippocampal neurons [8]; individual monomer): strongly stimulate neurite outgrowth
